Converted amounts (≈) assume the structure as drawn. Where two headings read alike, the source gives them in different places. Each block holds one compound with its values, some of them ahead of it.
Key:
[1] = tested on: MRSA USA200; assay: MIC against MRSA USA200; format: cell-based, Staphylococcus aureus; conditions: for MIC: Staphylococcus aureus, read-out: MIC, Staphylococcus aureus isolate USA200
Procedure: (§1) 96-well plates were seeded with 5 × 10^5 CFU/mL in a volume of 100 μL of tryptic soy broth (TSB) per well for Staphylococcus aureus assays. Compounds were dissolved in DMSO and serially diluted as 1:2 dilutions to give the final concentration ranging from 0.25 to 128 μg/mL per well. […] Plates were incubated at 37 °C for 18–20 hours and MIC was determined by reading OD625. For M.avium and M.abscessus, 7H9 broth media was used for determination of MICs. The final concentration was 5 × 10^5 CFU/mL in each well. The plate was incubated at 37 °C for 7–8 days and MICs were determined using a Tecan microplate reader (OD625) and resazurin reduction assay.

[2] = tested on: MRSA USA300; assay: MIC against MRSA USA300; format: cell-based, Staphylococcus aureus; conditions: Staphylococcus aureus, read-out: MIC, Staphylococcus aureus isolate USA300
Procedure: as §1

[3] = tested on: MRSA USA700; assay: MIC against MRSA USA700; format: cell-based, Staphylococcus aureus; conditions: for MIC: Staphylococcus aureus, read-out: MIC, Staphylococcus aureus isolate USA700
Procedure: as §1

[4] = tested on: MRSA USA100; assay: MIC against MRSA USA100; format: cell-based, Staphylococcus aureus; conditions: Staphylococcus aureus, read-out: MIC, Staphylococcus aureus isolate USA100
Procedure: as §1

[5] = tested on: MRSA USA400; assay: MIC against MRSA USA400; format: cell-based, Staphylococcus aureus; conditions: Staphylococcus aureus; TSB, 37 °C, 18–20 hours; read-out: MIC, Staphylococcus aureus isolate USA400
Procedure: as §1

[6] = tested on: MRSA USA500; assay: MIC against MRSA USA500; format: cell-based, Staphylococcus aureus; conditions: Staphylococcus aureus; TSB, 37 °C, 18–20 hours; read-out: MIC, Staphylococcus aureus isolate USA500
Procedure: as §1

[7] = tested on: Enterococcus faecalis; assay: MIC against Enterococcus faecalis; format: cell-based; conditions: read-out: MIC, EF
[8] = tested on: MRSA (USA700) biofilms; assay: S. aureus biofilm assay; format: cell-based, Staphylococcus aureus
Procedure: Biofilm assays were performed using a method previously described with modification. A 96 well plate was precoated with 20% human plasma (Sigma) in 0.05 M carbonate buffer, pH 9.6 at 4 °C for 24 h. MRSA was cultured overnight in TSB containing 3% NaCl and 0.5% glucose. The overnight culture was diluted with TSB/NaCl/Glucose media until OD600 reached 0.05. After carefully removing the liquid from the 96 well plate, 200 μL of MRSA dilution was added to each well in triplicate. The plate was incubated at 37 °C for 24 h and carefully washed with PBS twice. MH broth (200 μL) containing a compound was added to each well in triplicate and incubated at 37 °C for 24 h. After washing with PBS twice, the biofilm was scraped in 100 μL of PBS and serially diluted and plated on TSA to determine CFU.

[9] = tested on: MRSA USA800; assay: MIC against MRSA USA800; format: cell-based, Staphylococcus aureus; conditions: Staphylococcus aureus; TSB, 37 °C, 18–20 hours; read-out: MIC, Staphylococcus aureus isolate USA800
Procedure: as §1

[10] = tested on: Methicillin susceptible Staphylococcus aureus; assay: MIC against MSSA; format: cell-based; conditions: MSSA
Procedure: as §1

[11] = tested on: Pseudomonas aeruginosa; assay: MIC against Pseudomonas aeruginosa; format: cell-based; conditions: read-out: MIC, PA
[12] = tested on: Mycobacterium avium; assay: MIC against Mycobacterium avium; format: cell-based; conditions: 7H9 broth, 7–8 days
Procedure: as §1

[13] = tested on: Mycobacterium abscessus; assay: MIC against Mycobacterium abscessus; format: cell-based; conditions: Mycobacteroides abscessus, 7H9 broth, 7–8 days
Procedure: as §1

[14] = tested on: Gram-positive bacteria; assay: MIC against Gram-positive bacteria (summary); format: cell-based; conditions: range over all tested Gram-positive bacteria
Procedure: as §1

Structure (SMILES): Brc1ccc(CCNCCCCCCCCOc2ccc3cc(Br)c(OCc4ccccc4)cc3c2)cc1 [6e]
MIC [1]: 128 µg/mL (≈ 200 µM) | MIC [2]: > 128 µg/mL | MIC [3]: 128 µg/mL (≈ 200 µM)

Structure (SMILES): COc1ccc2ccc(OCCCCCCCCn3c4ccccc4c4ccccc43)cc2c1 [3f]
MIC [4]: > 128 µg/mL | MIC [3]: > 128 µg/mL

MIC [5]: 0.5 µg/mL (≈ 1.09 µM) | MIC [6]: < 0.06 µg/mL | MIC, Staphylococcus aureus isolate USA700 ([3]; TSB, 37 °C, 18–20 hours): < 0.06 µg/mL | MIC [7]: 16 µg/mL (≈ 35 µM)
Structure (SMILES): CN(C)c1ccc(O)c2c1C[C@H]1C[C@H]3[C@H](N(C)C)C(O)=C(C(N)=O)C(=O)[C@@]3(O)C(O)=C1C2=O [Minomycin, Minocycline, reference compound]
MRSA biofilm growth compared to the positive control ([8]; USA700 biofilm, 0.5 and 0.03 mg/mL, 24 h): significant decrease | fold reduction of MRSA biofilm compared to the positive control ([8]; USA 700 biofilm, 8300 × MIC): 10^6 fold

Structure (SMILES): c1cc2ccc(OCCCN3CCCCC3)cc2cc1OCCCN1CCCCC1 [7b]
MIC [3]: > 128 µg/mL

Structure (SMILES): C=CCN(C)CCCOC/C=C/COc1ccc2ccc(OC)cc2c1 [4a]
MIC [1]: 128 µg/mL (≈ 360 µM) | MIC [3]: 128 µg/mL (≈ 360 µM)

Structure (SMILES): COc1ccc2ccc(OCCCCCCCCNCCc3ccc(Cl)cc3)cc2c1 [3b]
MIC ([4]; TSB, 37 °C, 18–20 hours): 6 µg/mL (≈ 13.6 µM) | MIC ([1]; TSB, 37 °C, 18–20 hours): 2 µg/mL (≈ 4.55 µM) | MIC ([2]; TSB, 37 °C, 18–20 hours): 6 µg/mL (≈ 13.6 µM) | MIC [5]: 4 µg/mL (≈ 9.09 µM) | MIC [6]: 8 µg/mL (≈ 18.2 µM) | MIC ([3]; TSB, 37 °C, 18–20 hours): 8 µg/mL (≈ 18.2 µM) | MIC [9]: 6 µg/mL (≈ 13.6 µM) | MIC [10]: 4 µg/mL (≈ 9.09 µM) | MIC [7]: 0.5 µg/mL (≈ 1.14 µM) | MIC [11]: > 64 µg/mL | MIC [12]: 4 µg/mL (≈ 9.09 µM) | MIC [13]: 12 µg/mL (≈ 27.3 µM) | MIC values against all Gram-positive bacteria (range) [14]: 0.5 to 16 µg/mL

MIC ([4]; TSB, 37 °C, 18–20 hours): 0.5 µg/mL (≈ 1.48 µM) | MIC ([1]; TSB, 37 °C, 18–20 hours): 1 µg/mL (≈ 2.96 µM) | MIC ([2]; TSB, 37 °C, 18–20 hours): 1 µg/mL (≈ 2.96 µM) | MIC [5]: 1 µg/mL (≈ 2.96 µM) | MIC [6]: 0.5 µg/mL (≈ 1.48 µM) | MIC ([3]; TSB, 37 °C, 18–20 hours): 1 µg/mL (≈ 2.96 µM) | MIC [9]: 0.5 µg/mL (≈ 1.48 µM) | MIC [10]: 1 µg/mL (≈ 2.96 µM) | MIC [7]: > 32 µg/mL | MIC [11]: 1 µg/mL (≈ 2.96 µM)
Structure (SMILES): CC(=O)NC[C@H]1CN(c2ccc(N3CCOCC3)c(F)c2)C(=O)O1 [Linezolid, reference compound]

MIC [5]: > 128 µg/mL | MIC ([3]; TSB, 37 °C, 18–20 hours): > 128 µg/mL | MIC [10]: > 128 µg/mL | MIC [11]: > 128 µg/mL
Structure (SMILES): COc1ccc2ccc(OCCCCCCCCN[C@@H]3CCOC3=O)cc2c1 [3h]

MIC ([4]; TSB, 37 °C, 18–20 hours): 32 µg/mL (≈ 60 µM) | MIC ([1]; TSB, 37 °C, 18–20 hours): 8 µg/mL (≈ 15 µM) | MIC ([2]; TSB, 37 °C, 18–20 hours): 32 µg/mL (≈ 60 µM) | MIC [5]: 16 µg/mL (≈ 30 µM) | MIC ([3]; TSB, 37 °C, 18–20 hours): 32 µg/mL (≈ 60 µM) | MIC [7]: 8 µg/mL (≈ 15 µM)
Structure (SMILES): Brc1ccc(CCNCCCCCCCCOc2ccc3cc(Br)ccc3c2)cc1 [5c]

Structure (SMILES): COc1ccc2ccc(OCCCCCCCCN3CCN(c4ccc(F)cc4)CC3)cc2c1 [3e]
MIC [3]: > 128 µg/mL | MIC [7]: > 128 µg/mL

MIC, Staphylococcus aureus isolate USA200 ([1]; TSB, 37 °C, 18–20 hours): >128 µg/mL | MIC, Staphylococcus aureus isolate USA700 ([3]; TSB, 37 °C, 18–20 hours): 128 µg/mL (≈ 335 µM)
Structure (SMILES): C=CCN(C)CCCOc1ccc2ccc(OCCCN(C)CC=C)cc2c1 [7a]

Structure (SMILES): COc1ccc2ccc(OC/C=C/COCCCN3CCCCC3)cc2c1 [4b]
MIC [3]: 128 µg/mL (≈ 346 µM) | MIC [11]: > 128 µg/mL
